Experimental findings from ChEMBL document CHEMBL1201862, “PubChem BioAssay data set” (2004) are described below.

The target in assay [1] is Induced myeloid leukemia cell differentiation protein Mcl-1 (Homo sapiens, UniProt Q07820). The assay is classed as functional.
The nature of assay [2]: CCR5-tropic HIV-1 fusion blockers – cell-based, CCR5-tropic Env, dose response (AID 2279). It is filed as functional.
Assay [3] deals with T1, SUMO-activating enzyme (Homo sapiens, UniProt Q9UBT2). Put plainly: blockers of UBC9-mediated SUMO conjugation – biochemical, AlphaScreen, SUMOylation inhibitor project, confirmation (AID 2018). It is filed as functional. On the technique in general: In Alpha technology, singlet oxygen from a donor bead excites a nearby acceptor bead.
T1 sequence (Q9UBE0 whole entry): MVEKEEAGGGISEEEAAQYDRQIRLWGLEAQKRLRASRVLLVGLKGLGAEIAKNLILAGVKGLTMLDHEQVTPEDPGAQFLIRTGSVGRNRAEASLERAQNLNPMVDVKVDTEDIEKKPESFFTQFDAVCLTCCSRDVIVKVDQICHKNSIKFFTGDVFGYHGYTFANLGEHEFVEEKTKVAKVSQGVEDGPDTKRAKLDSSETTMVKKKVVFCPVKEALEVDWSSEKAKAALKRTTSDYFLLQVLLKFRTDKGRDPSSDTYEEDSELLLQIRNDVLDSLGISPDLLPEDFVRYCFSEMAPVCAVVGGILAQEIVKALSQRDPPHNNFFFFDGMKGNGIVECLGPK
T1 sequence (Q9UBT2 whole entry): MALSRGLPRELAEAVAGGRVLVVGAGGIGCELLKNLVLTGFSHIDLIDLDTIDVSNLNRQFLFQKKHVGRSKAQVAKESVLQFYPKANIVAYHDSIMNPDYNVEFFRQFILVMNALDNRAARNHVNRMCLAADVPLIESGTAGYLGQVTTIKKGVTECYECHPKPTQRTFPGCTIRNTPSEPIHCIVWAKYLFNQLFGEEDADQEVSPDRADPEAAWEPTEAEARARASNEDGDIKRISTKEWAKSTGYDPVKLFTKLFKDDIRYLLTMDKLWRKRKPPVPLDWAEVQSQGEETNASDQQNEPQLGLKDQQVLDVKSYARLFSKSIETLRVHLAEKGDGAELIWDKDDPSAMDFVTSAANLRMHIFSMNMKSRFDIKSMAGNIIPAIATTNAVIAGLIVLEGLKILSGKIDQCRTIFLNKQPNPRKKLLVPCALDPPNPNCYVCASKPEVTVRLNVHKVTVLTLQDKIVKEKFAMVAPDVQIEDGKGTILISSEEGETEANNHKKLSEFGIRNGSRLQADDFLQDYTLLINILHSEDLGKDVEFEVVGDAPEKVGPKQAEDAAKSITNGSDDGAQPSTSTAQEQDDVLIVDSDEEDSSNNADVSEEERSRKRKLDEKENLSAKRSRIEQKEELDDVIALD
For assay [4], the target named is T1, SUMO-activating enzyme. As to the kind of experiment: blockers of SAE1/SAE2–UBC9 SUMO transfer – biochemical, HTRF, uHTS, primary screen (AID 2006). It is filed as protein-complex assay.
Assay [5] can be described thus: microbe, parasite or virus in culture. It is filed as functional. Particulars: Mycobacterium tuberculosis.
The target in assay [6] is NACHT, LRR and PYD domains-containing protein 3 (Homo sapiens, UniProt Q96P20). Put plainly: NALP3 inhibitors in yeast, dose response, luminescent (AID 488799). The assay is classed as functional.
Sequence of NACHT, LRR and PYD domains-containing protein 3 (Q96P20 whole entry, the tested form may be a part): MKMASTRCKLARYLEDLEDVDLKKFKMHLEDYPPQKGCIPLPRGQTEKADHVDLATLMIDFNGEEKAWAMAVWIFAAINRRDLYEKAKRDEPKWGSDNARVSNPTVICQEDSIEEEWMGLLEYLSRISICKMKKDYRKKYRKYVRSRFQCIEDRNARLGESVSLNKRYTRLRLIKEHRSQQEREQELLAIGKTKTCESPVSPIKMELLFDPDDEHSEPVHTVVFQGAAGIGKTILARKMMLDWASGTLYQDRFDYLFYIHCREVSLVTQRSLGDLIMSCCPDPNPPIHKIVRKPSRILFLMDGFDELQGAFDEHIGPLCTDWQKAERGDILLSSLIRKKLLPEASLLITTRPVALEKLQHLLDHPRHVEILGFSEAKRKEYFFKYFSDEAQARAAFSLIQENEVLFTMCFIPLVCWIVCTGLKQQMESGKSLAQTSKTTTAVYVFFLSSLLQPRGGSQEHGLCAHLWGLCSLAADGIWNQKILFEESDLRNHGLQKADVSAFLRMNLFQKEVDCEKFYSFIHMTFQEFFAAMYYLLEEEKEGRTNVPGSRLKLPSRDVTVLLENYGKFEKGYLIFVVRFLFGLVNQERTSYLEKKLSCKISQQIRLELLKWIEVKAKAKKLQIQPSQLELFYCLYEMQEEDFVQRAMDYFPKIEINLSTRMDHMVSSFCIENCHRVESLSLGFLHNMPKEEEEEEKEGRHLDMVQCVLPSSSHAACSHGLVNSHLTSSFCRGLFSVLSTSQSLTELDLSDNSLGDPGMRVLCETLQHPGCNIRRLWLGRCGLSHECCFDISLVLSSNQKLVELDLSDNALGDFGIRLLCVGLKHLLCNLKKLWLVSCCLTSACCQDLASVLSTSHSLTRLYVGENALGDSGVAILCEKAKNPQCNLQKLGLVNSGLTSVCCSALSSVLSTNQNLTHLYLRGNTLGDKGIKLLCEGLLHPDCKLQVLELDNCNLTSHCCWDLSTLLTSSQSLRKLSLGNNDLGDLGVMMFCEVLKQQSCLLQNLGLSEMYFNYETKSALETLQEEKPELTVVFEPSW
Assay [7] is described as follows: loss of viability in HepG2 cells – cell-based, CellTiter-Glo, cherry-picked, cytotoxicity control for Shn3 inhibitor project, dose response (AID 624134). The assay is classed as functional. For orientation: In ATP-based viability assays light output follows the ATP content of the culture.
Assay [8] is described as follows: reduction of Shn3 3'UTR-driven luciferase in osteoblasts – cell-based, Clone20 osteoblasts, firefly luciferase, cherry-picked, dose response (AID 624132).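 Also: firefly luciferase luminescence from reporter carrying the Shn3 3'UTR in osteoblasts.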 The assay is classed as functional.
Assay [9] is described as follows: Trypanosoma cruzi growth suppression in host cells – NIH3T3 host cells, beta-gal luminescence, confirmation (AID 2044).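 Also: intracellular parasites grown in NIH/3T3 mouse fibroblasts as host cells; luminescent beta-galactosidase reporter signal from transgenic T. cruzi replicating inside host cells; inhibitors lower the luminescence signal.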 It is filed as functional, cell-based.
Assay [10] addresses Serine/threonine-protein phosphatase (Homo sapiens, UniProt Q9BPW0). As to the kind of experiment: Counterscreen for inhibitors of PP1: fluorescence-based biochemical high throughput dose response assay to identify inhibitors of Protein Phosphatase 5 (PP5). [Related pubchem assays: 2034 (Summary (PP5 inhibitors)), 1987 (PP5 inhibitors in singlate), 2235 (PP1 inhibitors in singlate)]. In general terms: The purpose of a counterscreen is to sort out artefacts and off-target activity.

Assay [11] in a line: non-specific 3'UTR reporter inhibition in Clone20-Shn3RL – cell-based, Renilla luciferase, cherry-picked, counter-screen for Shn3 inhibitor project, dose response (AID 624133). It is filed as functional.
The target of assay [12] is Serine/threonine-protein phosphatase PP1-alpha catalytic subunit (Homo sapiens, UniProt P62136). As to the kind of experiment: inhibition of protein phosphatase 1 activity – biochemical, fluorescence, dose response (AID 2403).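 Also: phosphatase turnover of OMFP into fluorescent 3-O-methylfluorescein.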
Sequence of Serine/threonine-protein phosphatase PP1-alpha catalytic subunit (P62136 whole entry): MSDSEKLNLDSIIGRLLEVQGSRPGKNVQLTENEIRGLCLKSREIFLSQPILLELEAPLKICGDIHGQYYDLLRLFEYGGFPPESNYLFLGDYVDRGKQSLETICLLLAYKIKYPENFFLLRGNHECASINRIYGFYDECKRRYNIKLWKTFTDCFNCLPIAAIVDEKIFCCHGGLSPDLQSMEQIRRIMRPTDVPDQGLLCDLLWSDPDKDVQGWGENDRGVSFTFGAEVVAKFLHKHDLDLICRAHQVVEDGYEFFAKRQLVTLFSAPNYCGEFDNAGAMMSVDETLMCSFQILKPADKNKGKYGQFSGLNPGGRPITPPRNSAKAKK
The nature of assay [13]: NIH3T3 cell viability loss – ATP luminescence, mouse fibroblasts, counter-screen, dose response (AID 2010).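 Also: cells exposed to compound for about 90 hours before reading.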 It is filed as functional, cell-based.
The target of the next assay is Aminopeptidase N (Plasmodium falciparum FcB1/Columbia, UniProt O96935). As to the kind of experiment: malaria alanyl aminopeptidase activity blockers – biochemical, fluorogenic H-Leu-NHMec substrate, 1536-well (AID 1445). More on the design: species or system Plasmodium falciparum 3D7, 3D7.
Sequence of Aminopeptidase N (O96935 whole entry): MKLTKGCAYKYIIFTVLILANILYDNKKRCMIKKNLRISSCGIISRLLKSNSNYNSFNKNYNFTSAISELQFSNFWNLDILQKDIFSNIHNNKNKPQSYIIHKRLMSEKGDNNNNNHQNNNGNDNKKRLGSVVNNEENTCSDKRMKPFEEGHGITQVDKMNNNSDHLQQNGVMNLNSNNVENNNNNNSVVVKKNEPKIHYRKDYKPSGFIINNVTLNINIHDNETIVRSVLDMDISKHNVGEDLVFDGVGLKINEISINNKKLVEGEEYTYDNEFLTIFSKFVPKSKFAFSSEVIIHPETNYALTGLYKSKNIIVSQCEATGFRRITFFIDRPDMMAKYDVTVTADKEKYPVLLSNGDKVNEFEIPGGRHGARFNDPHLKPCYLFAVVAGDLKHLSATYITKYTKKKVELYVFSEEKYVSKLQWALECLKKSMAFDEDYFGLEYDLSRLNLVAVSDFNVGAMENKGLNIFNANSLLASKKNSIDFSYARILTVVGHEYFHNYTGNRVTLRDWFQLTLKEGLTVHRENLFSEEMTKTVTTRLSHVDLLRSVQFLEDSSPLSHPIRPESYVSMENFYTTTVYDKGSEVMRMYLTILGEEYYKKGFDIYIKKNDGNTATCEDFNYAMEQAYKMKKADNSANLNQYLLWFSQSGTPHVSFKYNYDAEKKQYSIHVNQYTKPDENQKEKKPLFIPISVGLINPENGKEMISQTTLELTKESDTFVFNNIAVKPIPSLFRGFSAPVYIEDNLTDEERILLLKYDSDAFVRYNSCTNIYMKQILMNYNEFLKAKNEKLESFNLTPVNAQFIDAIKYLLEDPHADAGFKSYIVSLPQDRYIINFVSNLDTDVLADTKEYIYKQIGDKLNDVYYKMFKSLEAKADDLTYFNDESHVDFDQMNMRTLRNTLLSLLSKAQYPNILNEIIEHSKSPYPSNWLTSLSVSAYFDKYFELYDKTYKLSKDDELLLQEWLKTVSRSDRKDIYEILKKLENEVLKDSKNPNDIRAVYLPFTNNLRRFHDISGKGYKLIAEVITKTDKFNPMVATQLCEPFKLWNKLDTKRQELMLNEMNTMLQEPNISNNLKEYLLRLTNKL
Assay [14] can be described thus: Luminescence Cell-Based Dose Confirmation HTS to Identify Inhibitors of Platelet Dense Granule Release. [Related pubchem assays: 1663 (Primary HTS), 1678 (Summary of Project)]. It is filed as functional.
For assay [15], the target named is Luciferin 4-monooxygenase (Photinus pyralis, UniProt P08659). Put plainly: inhibition of purified Photinus pyralis luciferase – biochemical, luminescence, dose response (AID 1891).
For assay [16], the target named is T2, Microphthalmia-associated transcription factor (Homo sapiens, UniProt O75030).
T2 sequence (O75030 whole entry): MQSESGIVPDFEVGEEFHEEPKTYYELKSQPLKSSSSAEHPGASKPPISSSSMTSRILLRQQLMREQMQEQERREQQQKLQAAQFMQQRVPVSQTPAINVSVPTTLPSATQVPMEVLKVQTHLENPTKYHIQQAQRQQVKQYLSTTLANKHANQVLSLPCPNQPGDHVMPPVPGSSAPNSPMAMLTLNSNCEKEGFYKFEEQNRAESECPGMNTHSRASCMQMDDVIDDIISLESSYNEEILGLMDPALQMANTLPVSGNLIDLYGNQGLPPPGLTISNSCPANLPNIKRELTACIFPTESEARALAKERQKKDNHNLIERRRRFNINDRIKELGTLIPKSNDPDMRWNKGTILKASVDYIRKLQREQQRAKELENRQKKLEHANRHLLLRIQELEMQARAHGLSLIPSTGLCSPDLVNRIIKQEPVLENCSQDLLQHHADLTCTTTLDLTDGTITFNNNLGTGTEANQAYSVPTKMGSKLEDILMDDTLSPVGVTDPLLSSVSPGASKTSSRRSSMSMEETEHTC
Put plainly: reducers of TRPM1 reporter luminescence, concentration series – cell-based, SK-MEL-5, cherry-picked, set 3, MITF inhibitor project, dose response (AID 493073).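 Also: SK-MEL-5 melanoma cells with luciferase driven by the MITF target TRPM1 promoter.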 It is filed as functional.

Assay [17] in a line: HEK-293T viability loss after treatment – luminescence, T-cell screen hits, cytotoxicity control for TCR NF-kB inhibitor project, dose response (AID 489026).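 Also: cells exposed to compound about 14 hours before the viability readout.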 The assay is classed as functional, cell-based.
A further assay has as its system A-375. As to the kind of experiment: MITF: Counter assay: A375 proliferation Measured in Cell-Based System Using Plate Reader - 2084-03_Inhibitor_Dose_DryPowder_Activity. [Related pubchem assays (depositor defined):AID488944]. Particulars: Homo sapiens. It is filed as functional.
Another assay has as its target Paired box protein Pax-8 (Homo sapiens, UniProt Q06710). Put plainly: PAX8 transcriptional activity inhibition in RMG-I – RMG-I cells, luciferase, cherry-pick, dose response (AID 687027).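 Also: luciferase reporter driven by Pax8 target thyroperoxidase promoter measured by SteadyGlo luminescence.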 It is filed as functional, cell-based.
Assay [18] in a line: Luminescence-based counterscreen assay for KLF5 inhibitors: dose response cell-based high throughput screening assay to identify cytotoxic compounds using the IEC-6 intestinal epithelial cell line. [Related pubchem assays: 1700 (Primary screen.), 1834 (Confirmation screen.), 1858 (Summary AID.), 1905 (Counterscreen.)]. It is filed as functional.
The nature of assay [19]: general cell-killing toxicity readout – plate reader, dry powder samples, cytotoxicity control for PAX8 inhibitor project, dose response (AID 743021). The assay is classed as functional, cell-based.

Calls of active or inactive are those of the source.

Sequence of Induced myeloid leukemia cell differentiation protein Mcl-1 (Q07820 whole entry, the tested form may be a part): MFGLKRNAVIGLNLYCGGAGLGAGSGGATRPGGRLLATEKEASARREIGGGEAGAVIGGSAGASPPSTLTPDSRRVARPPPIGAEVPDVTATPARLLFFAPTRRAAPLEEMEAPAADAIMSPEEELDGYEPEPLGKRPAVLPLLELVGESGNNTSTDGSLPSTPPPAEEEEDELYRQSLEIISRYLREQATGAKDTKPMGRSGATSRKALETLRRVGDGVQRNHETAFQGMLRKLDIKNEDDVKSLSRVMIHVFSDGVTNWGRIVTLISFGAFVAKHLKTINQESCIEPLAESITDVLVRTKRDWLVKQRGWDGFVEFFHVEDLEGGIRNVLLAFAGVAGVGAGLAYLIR
Sequence of Paired box protein Pax-8 (Q06710 whole entry): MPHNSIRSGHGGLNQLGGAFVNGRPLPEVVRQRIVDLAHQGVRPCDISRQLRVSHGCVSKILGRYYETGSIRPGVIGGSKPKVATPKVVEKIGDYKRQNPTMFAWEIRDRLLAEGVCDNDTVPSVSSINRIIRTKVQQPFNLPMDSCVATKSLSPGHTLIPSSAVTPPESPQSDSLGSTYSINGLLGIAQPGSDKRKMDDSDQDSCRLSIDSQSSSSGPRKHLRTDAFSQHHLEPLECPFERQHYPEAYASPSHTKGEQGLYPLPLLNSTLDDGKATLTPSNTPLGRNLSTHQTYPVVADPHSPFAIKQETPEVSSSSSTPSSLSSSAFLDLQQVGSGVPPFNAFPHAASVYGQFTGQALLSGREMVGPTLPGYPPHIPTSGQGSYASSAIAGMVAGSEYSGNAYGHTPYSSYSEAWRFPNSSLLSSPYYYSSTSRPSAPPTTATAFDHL
Sequence of Serine/threonine-protein phosphatase (Q9BPW0 whole entry): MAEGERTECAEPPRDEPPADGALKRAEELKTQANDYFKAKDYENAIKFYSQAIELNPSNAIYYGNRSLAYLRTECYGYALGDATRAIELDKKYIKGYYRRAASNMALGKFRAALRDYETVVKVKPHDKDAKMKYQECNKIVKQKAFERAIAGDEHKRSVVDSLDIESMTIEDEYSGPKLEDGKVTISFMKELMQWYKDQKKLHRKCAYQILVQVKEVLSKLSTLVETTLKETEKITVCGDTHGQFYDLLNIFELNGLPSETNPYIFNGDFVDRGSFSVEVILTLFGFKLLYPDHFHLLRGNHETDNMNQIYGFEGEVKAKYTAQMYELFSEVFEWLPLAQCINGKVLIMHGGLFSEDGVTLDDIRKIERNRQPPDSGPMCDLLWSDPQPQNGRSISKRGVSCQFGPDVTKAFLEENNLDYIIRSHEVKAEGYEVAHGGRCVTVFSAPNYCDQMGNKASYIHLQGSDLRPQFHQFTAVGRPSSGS

As usually defined, the IC50 is the concentration that inhibits the measured activity by half. With `CN(C)S(=O)(=O)c1cccc(-c2nn(-c3ccccc3)cc2/C=C2\SC(=S)NC2=O)c1`, the IC50 in [1] is 1.44 µM (active); in assay [2], 7.08 µM (active); on SUMO-activating enzyme [3], 7.59 µM (active); on SUMO-activating enzyme [4] it was 10.6 µM (active).
For `O=C(NCCC1=CCCCC1)c1c(O)nc2sccn2c1=O`, in [5], the CC50 is 13.8 µM (active). Further, the IC50 in assay [6] was 3.8 µM (active).
By AC50 is commonly meant the concentration giving half of the maximal activity seen. In general, EC50 refers to the concentration that produces a half-maximal response. On to `CCOC(=O)c1cnc(-n2nc(C)cc2C)nc1NCc1ccc2c(c1)OCO2`, for which the half-maximal activity concentration (AC50) in assay [7] is 63 µM (active); in [8], 8.74 µM (active); in assay [11], 16.1 µM (active). The values for the half-maximal effective concentration (EC50) in assay [9] and in [13] were 2.36 µM (active) and > 60 µM (not active), respectively. For the same compound, the IC50 in assay [10] is > 67 µM (not active); in [12] it was 5.21 µM (active).
Regarding `CC(C)Oc1ccc(C(=O)N/N=C/c2ccc(-c3ccc(S(=O)(=O)Nc4ncccn4)cc3)o2)cc1`, the IC50 at Aminopeptidase N was 23.1 µM (active).
`COc1cccc(/C=N/Nc2ccc(C(=O)O)cc2)c1O`: the EC50 in [14] was 0.17 µM (active); in assay [15] it was 0.693 µM (active). Also, the concentration at half-maximal activity (AC50) in assay [16] is 0.333 µM (active); in the assay on A-375, 29.9 µM (active); at Paired box protein Pax-8, 0.635 µM (active); in [19], 21.6 µM (active). Moreover, the results for the IC50 in assay [17] and in assay [18] were > 80 µM (inactive) and > 39.8 µM (not active), respectively.
